Assay results from patent US12642794B2, “Dose regimens for use of LY3154207 in the treatment of dopaminergic CNS disorders” (Eli Lilly and Company, priority 2018, dated 2026).
“Also recorded” adds a separate entry of the source. Where two headings read alike, the source gives them in different places.

How the values were obtained:
Assay type in all cases: in vivo, human
[1] = HBEA Part B cerebrospinal fluid (CSF) pharmacokinetics after a single dose
Description: (§1) HBEA is a single ascending dose study of a D1 receptor positive allosteric modulator LY3154207 in healthy volunteers. Study HBEA aims to determine the safety, tolerability, and peripheral and central pharmacokinetics (PK) of single ascending doses of LY3154207 in healthy subjects. Study HBEB aims to evaluate the effect of single-dose LY3154207 on sleep latency in sleep-deprived healthy male subjects as measured by a multiple sleep latency test (MSLT). HBEA was a Phase 1, 2-part, randomized, double-blind, placebo-controlled study in healthy males or females. Part A has a 3-period crossover design with 2 alternating, single-dose escalating cohorts, and subjects were randomized to LY3154207 (n=6) or placebo (n=3) in each cohort in each dosing period. Part B has a single-period, single-dose, 2-cohort design with cerebrospinal fluid (CSF) sampling, and subjects were randomized to LY3154207 (n=8) or placebo (n=4) in each cohort.
HBEA Part B is a study of Cerebrospinal fluid (CSF) and plasma pharmacokinetic (PK) profile following a single dose of LY3154207 in healthy volunteers. The objective of the study is to determine the CSF and plasma PK profile of LY3154207 in a single dose study m healthy volunteers. This study consisted of 2 cohorts in a single-dose, single-period, placebo-controlled, randomized, double-blind, parallel-group study. Subjects were randomized to 25 mg and 75 mg and underwent serial blood and CSF sampling at 2 hours pre-dose and 24 hours post-dose to measure concentrations of LY3154207. Twenty-four subjects enrolled and all completed the study. […] Concentrations of LY3154207 in CSF were detectable up to 8 h after a dose of 25 mg and up to 24 hours after a dose of 75 mg. At each dose about 1% of the total LY3154207 exposure in plasma was available in CSF. At 25 mg and 75 mg, central penetration of LY3154207 was confirmed by measurement of LY3154207 in CSF supporting its use according to the dosing regimens of the present invention in dopaminergic CNS disorders.

healthy volunteers [2] = experiment: HBEA Part B adverse events; conditions: 75 mg, all mild
Description: as §1
HBEA Part B is a study of Cerebrospinal fluid (CSF) and plasma pharmacokinetic (PK) profile following a single dose of LY3154207 in healthy volunteers. The objective of the study is to determine the CSF and plasma PK profile of LY3154207 in a single dose study m healthy volunteers. This study consisted of 2 cohorts in a single-dose, single-period, placebo-controlled, randomized, double-blind, parallel-group study. […]

[3] = test system: sleep-deprived healthy male subjects; experiment: HBEB sleep latency study: multiple sleep latency test (MSLT), Karolinska Sleepiness Scale; conditions: for effect on wakefulness / sleep latency: single doses 15 mg to 75 mg
Description: FIG. 2: HBEB, a Phase 1, single-dose, randomized, placebo-controlled, 4-period, incomplete crossover study in sleep-deprived healthy male subjects (n=17). Effects of a single dose of LY3154207 on wakefulness as measured by the multiple sleep latency test (MSLT) in sleep deprived healthy male subjects. Sleep latency is time from start of MSLT to first detection of sleep (minutes). […] CI=confidence interval: LS-least squares: MSLT=multiple sleep latency test.
Dose dependent activating adverse events were also observed in a single ascending dose study. To determine the effects of a single dose of LY3154207 was studied on wakefulness as measured by the multiple sleep latency test (MSLT) in sleep deprived healthy male subjects. HBEB was a Phase 1, single-dose, randomized, placebo-controlled, 4-period, incomplete crossover study in sleep-deprived healthy male subjects (n=17). Subjects were randomized to receive a single dose of either placebo, LY3154207 15, 30, or 75 mg (double-blind), or modafinil (open-label control). In each period, subjects were sleep deprived for approximately 26 hours before dosing and approximately 12 hours post-dose. MSLT was conducted every 2 hours until 10 hours post-dose. Analysis based on mixed-model repeated measures included treatment, period, time, and the treatment-by-time interaction as fixed effects, and subject as a random effect: overall sleep latency was the average of the 4 post-dose sleep latencies. All subjects are randomized to receive 4 out of 5 available single dose treatments (15, 30, 75 mg LY3154207, placebo or modafanil 200 mg) with all subjects receiving placebo. The washout period is at least 7 days. MSLT is the primary assessment of wakefulness. Secondary outcomes include the Karolinska Sleepiness Scale (KSS), EEG and a simple reaction performance task. Blood samples are collected to measure plasma concentrations of LY3154207 and modafinil. Seventeen subjects are enrolled and received at least one dose of study drug with sixteen subjects completing all 4 periods of the trial. A dose dependent increase in MSLT is observed with least square means (95% CI) difference compared to placebo of 5.2 minutes (3.3,7.1) for 75 mg, 3.2 minutes (1.4, 5.1) for 30 mg, 1.3 minutes (−0.6, 3.2) for 15 mg, as shown in FIG. 2. […] PK is linear with a Cmax and t1/2 of approximately 3 and 9 hours across the dose range.

[4] = HBEB plasma pharmacokinetics
Description: Dose dependent activating adverse events were also observed in a single ascending dose study. To determine the effects of a single dose of LY3154207 was studied on wakefulness as measured by the multiple sleep latency test (MSLT) in sleep deprived healthy male subjects. HBEB was a Phase 1, single-dose, randomized, placebo-controlled, 4-period, incomplete crossover study in sleep-deprived healthy male subjects (n=17). Subjects were randomized to receive a single dose of either placebo, LY3154207 15, 30, or 75 mg (double-blind), or modafinil (open-label control). In each period, subjects were sleep deprived for approximately 26 hours before dosing and approximately 12 hours post-dose. MSLT was conducted every 2 hours until 10 hours post-dose. Analysis based on mixed-model repeated measures included treatment, period, time, and the treatment-by-time interaction as fixed effects, and subject as a random effect: overall sleep latency was the average of the 4 post-dose sleep latencies. All subjects are randomized to receive 4 out of 5 available single dose treatments (15, 30, 75 mg LY3154207, placebo or modafanil 200 mg) with all subjects receiving placebo. The washout period is at least 7 days. MSLT is the primary assessment of wakefulness. Secondary outcomes include the Karolinska Sleepiness Scale (KSS), EEG and a simple reaction performance task. […]

healthy volunteers [5] = experiment: HBEC cognition tests: Digit Symbol Substitution Test (DSST), Hopkins Verbal Learning Test (HVLT); conditions: 15 mg

- central penetration by measurement in CSF ([1]; 25 and 75 mg): confirmed
- time for which concentrations in CSF were detectable ([1]; after a dose of 25 mg): up to 8 h
- time for which concentrations in CSF were detectable ([1]; after a dose of 75 mg): up to 24 hours
- Kp ([1]; both sexes, human, CSF, 25 mg and 75 mg, read-out: share of total plasma exposure available in CSF): ~0.01
- Tmax ([1]; both sexes, human, CSF, read-out: CSF median tmax): 3 to 4 h
- half-life ([1]; both sexes, human, CSF, read-out: CSF t1/2 (converted)): 8 h
- Kp ([1]; both sexes, human, CSF, read-out: CSF/unbound plasma ratio): 0.3
- linearity of PK [4]: linear
- half-life ([4]; male, human, plasma, across the dose range): ~9 h
SMILES: C[C@H]1c2cccc(CCC(C)(C)O)c2C[C@H](CO)N1C(=O)Cc1c(Cl)cccc1Cl [LY3154207]
- subjects with treatment-related AEs (healthy volunteers [2]): 25%
- MSLT sleep latency, least square means difference compared to placebo ([3]; single dose 15 mg): 1.3 min
- MSLT sleep latency, least square means difference compared to placebo ([3]; single dose 30 mg): 3.2 min
- MSLT sleep latency, least square means difference compared to placebo ([3]; single dose 75 mg): 5.2 min
- effect on wakefulness / sleep latency [3]: improves wakefulness in a dose dependent manner; also recorded: linear and dose-dependent effect on sleep latency
- effect on wakefulness / sleep latency ([3]; listed as LY3144207): increases wakefulness
- alertness measured by the Karolinska sleepiness scale ([3]; single doses 15, 30, 75 mg): dose-dependent increase in alertness
- Hopkins Verbal Learning Test (HVLT), improvement from baseline relative to other arms (healthy volunteers [5]): largest average improvement from baseline
- Digit Symbol Substitution Test (DSST), change from baseline relative to other arms (healthy volunteers [5]; both post dose time points): highest average change from baseline; also recorded: trend for better cognitive effects
